Laboratory results published in patent US10450293B2, “Chemokine CXCR4 and CCR5 receptor modulators and uses related thereto” (Emory University, priority 2014, dated 2019).

Legend:
[1] = test system: HIV-1 IIIB; assay: HIV-1 MAGI assay, IIIB (CXCR4 / T-tropic); type: cell-based
Procedure: (§1) Bayesian statistical models were constructed using known CXCR4 and CCR5 active compounds from literature, and these models were used to virtually screen 5 million compounds in the Aldrich Marketplace Select library. The screen yielded 14 compounds of interest that were then tested for their anti-HIV activity for both tropisms in MAGI assay. Two compounds (FIG. 1, compounds 1 and 2) were active against both T and M tropic forms of HIV with IC50 values of ˜20 μM. These initial hits were followed-up by a second round of virtual screening based on similarity and sub-structure searching. Another 24 compounds were purchased from the same database and tested. […] This compound was then subjected to a series of biological evaluations to determine activity profile and confirm mechanism of action.

[2] = test system: HIV-1 Ba-L; assay: HIV-1 MAGI assay, Ba-L (CCR5 / M-tropic); type: cell-based
Procedure: as §1

[3] = test system: HIV-1 Ba-L; assay: PBMC anti-HIV-1 assay, Ba-L (CCR5); type: cell-based; settings: Human immunodeficiency virus 1, BAL
[4] = test system: HIV-1 IIIB; assay: PBMC anti-HIV-1 assay, IIIB (CXCR4); type: cell-based; settings: Human immunodeficiency virus 1, IIIB, read-out: PBMC - HIV-1HIB (CXCR4) IC50
[5] = PBMC toxicity; type: cell-based; settings: read-out: PBMC - Toxicity TC50
[6] = molecular target: T1, CCR5 (Homo sapiens, UniProt P51681); assay: HeLa-C14:JRFL CD4-dependent cell-cell fusion assay; type: cell-based
T1 construct: expressed in transfected cells; host or cells: HeLa-C14
T1 sequence (P51681 whole entry, the tested form may be a part): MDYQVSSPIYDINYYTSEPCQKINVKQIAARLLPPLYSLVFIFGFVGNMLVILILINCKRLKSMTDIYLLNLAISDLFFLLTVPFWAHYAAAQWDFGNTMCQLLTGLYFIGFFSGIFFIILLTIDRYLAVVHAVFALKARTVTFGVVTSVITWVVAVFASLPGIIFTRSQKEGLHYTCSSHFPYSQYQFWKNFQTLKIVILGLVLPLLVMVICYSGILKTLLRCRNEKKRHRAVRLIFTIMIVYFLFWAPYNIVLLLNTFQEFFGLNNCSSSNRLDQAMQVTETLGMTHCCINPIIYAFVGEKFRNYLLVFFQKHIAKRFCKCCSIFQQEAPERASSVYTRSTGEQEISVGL
Text: Cell-cell fusion assays measure specifically co-receptor mediated inhibition of gp120-induced fusion in the absence of other viral machinery, and these assays were used to explore the CCR5- and CXCR4-specific antiviral activity. A cell-cell fusion assay was constructed to simulate HIV-1 entry in the absence of other viral machinery. The assay measured fusion of effector cells expressing the JRFL envelope (CCR5-tropic/CD4 dependent) with HeLa-C14 target cells (expressing CD4, CCR5, and CXCR4) using a luciferase readout (FIG. 5A).

[7] = molecular target: T1, CCR5; assay: 125I-MIP-1β displacement radio-ligand competition assay; type: binding
[8] = test system: HIV-2 strain that utilized CXCR4 for entry; assay: PBMC HIV-2 inhibition assay; type: cell-based
Text: Compounds 4 inhibited this HIV-2 strain in PBMC cells in support of the CXCR4-based viral entry inhibition mechanism.

[9] = test system: VSV-G pseudovirus; assay: microbe, parasite or virus in culture; type: cell-based
[10] = molecular target: HIV-1 reverse transcriptase (Human immunodeficiency virus type 1 group M subtype B, UniProt P03366); assay: biochemical; type: biochemical
[11] = test system: wild type virus; assay: organism not typed; type: cell-based; settings: read-out: Multi-cycle EC50 (WT)
[12] = in vitro; type: cell-based; settings: human
[13] = MAGI toxicity; settings: human, MAGI cells
[14] = test system: MAGI

## c1ccc(Cc2cn[nH]c2C2CCN(Cc3ccncc3)CC2)cc1 [Compound 4, 4-((4-(4-benzyl-1H-pyrazol-3-yl)piperidin-1-yl)methyl)pyridine]
[1]; Human immunodeficiency virus 1, IIIB, MAGI, Table 3, read-out: MAGI Assay IC50 CXCR4
  IC50: 800 nM
[1]; Human immunodeficiency virus 1, IIIB, MAGI, read-out: MAGI - HIV-1HIB (CXCR4) IC50
  IC50: 800 nM
[1]; Human immunodeficiency virus 1, IIIB, MAGI, table of synthesized compounds, read-out: X4-IC50
  IC50: 780 nM
[1]; Human immunodeficiency virus 1, IIIB, MAGI, value stated for both tropisms, read-out: IC50 against T tropic HIV in MAGI assay
  IC50: 800 to 3800 nM
[1]; IIIB, T-tropic, read-out: HIV-1 MAGI IC50 IIIB
  IC50: 25000 nM
[2]; Ba-L, M-tropic, read-out: HIV-1 MAGI IC50 Ba-L
  IC50: 17 µM
[2]; Human immunodeficiency virus 1, BAL, MAGI, value stated for both tropisms, read-out: IC50 against M tropic HIV in MAGI assay
  IC50: 0.8 to 3.8 µM
[2]; Human immunodeficiency virus 1, BAL, Table 3, read-out: MAGI Assay IC50 CCR5
  IC50: 3.8 µM
[2]; Human immunodeficiency virus 1, BAL, read-out: MAGI - HIV-1Ba-L (CCR5) IC50
  IC50: 3.8 µM
[2]; Human immunodeficiency virus 1, BAL, table of synthesized compounds, read-out: R5-IC50
  IC50: 3.75 µM
[3]
  IC50: 2300 nM
[4]
  IC50: 2300 nM
[5]
  CC50: > 100 µM
[6]
  IC50: 36 µM
[6]; luciferase readout, in words
  inhibition of JRFL envelope / HeLa-C14 cell-cell fusion: inhibited fusion
[7]; at 100 μM
  125I-MIP-1β Displacement: 38% at 100 μM/
[7]; at 1 mM
  125I-MIP-1β Displacement: 88% at 1 mM
[7]; in words
  displacement of 125I-MIP1β chemokine ligand from the receptor: displaced
[8]; Human immunodeficiency virus 2, PBMC
  IC50: 31 µM
[8]; in words
  inhibition of HIV-2 strain in PBMC cells: inhibited
[9]; Pseudovirus
  EC50: 1300 nM
[9]; in words
  inhibition of VSV-G pseudovirus: inhibited
[10]; in words
  inhibition of isolated HIV-1 reverse transcriptase: inhibited
[10]; read-out: Isolated HIV-RT Inhibition IC50
  IC50: 9 µM
[11]
  EC50: 900 nM
[12]
  CC50: > 200 µM
[13]; MAGI -Toxicity TC50
  CC50: > 300 µM
[13]; TC50, table of synthesized compounds
  CC50: > 100 µM

## 4-((4-(4-benzyl-5-methyl-1H-pyrazol-3-yl)piperidin-1-yl)methyl)-3-chloropyridine
[1]; table of synthesized compounds, read-out: X4-IC50
  IC50: 3100 nM
[2]; table of synthesized compounds, read-out: R5-IC50
  IC50: 4.2 µM
[14]
  CC50: 164 µM
